This note sets out measurements from patent publication US6953809B2, “Monocyte chemoattractant protein-1 inhibitor compounds” (Zeneca Limited, priority 1997, dated 2005).

Like-named read-outs stand apart in the source and are kept apart here.

The target in one series is T1, MCP-1 receptor B (CCR2B) (Homo sapiens, UniProt P41597).
T1 construct: expressed in transfected cells; membrane fragments
T1 sequence (P41597 1-360 isoform P41597-2): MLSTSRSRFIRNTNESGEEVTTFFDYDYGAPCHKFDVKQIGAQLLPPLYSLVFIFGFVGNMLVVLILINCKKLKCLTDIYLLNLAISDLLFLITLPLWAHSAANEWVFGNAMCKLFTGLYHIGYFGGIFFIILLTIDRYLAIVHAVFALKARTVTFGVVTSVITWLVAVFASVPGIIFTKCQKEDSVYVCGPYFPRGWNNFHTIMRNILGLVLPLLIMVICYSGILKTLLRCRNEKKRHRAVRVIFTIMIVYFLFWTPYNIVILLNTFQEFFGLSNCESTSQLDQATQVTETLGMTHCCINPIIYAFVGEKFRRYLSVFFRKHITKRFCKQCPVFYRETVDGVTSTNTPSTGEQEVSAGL
As to the kind of experiment: hMCP-1 receptor-binding assay (125I-MCP-1 competition on CHO-CCR2B cell membranes). An excerpt: a) hMCP-1 Receptor-Binding Assay i) Cloning and Expression of hMCP-1 Receptor
The MCP-1 receptor B (CCR2B) cDNA was cloned by PCR from THP-1 cell RNA using suitable oligonucleotide primers based on the published MCP-1 receptor sequences (Charo et al., 1994, Proc. Natl. Acad. Sci. USA, 91, 2752). The resulting PCR products were cloned into vector PCR-II™ (InVitrogen, San Diego, Calif.). Error free CCR2B cDNA was subcloned as a Hind III-Not I fragment into the eukaryotic expression vector pcDNA3 (InVitrogen) to generate pcDNA3/CC-CKR2A and pcDNA3/CCR2B respectively.
Linearised pcDNA3/CCR2B DNA was transfected into CHO-K1 cells by calcium phosphate precipitation (Wigler et al., 1979, Cell, 16, 777). Transfected cells were selected by the addition of Geneticin Sulphate (G418, Gibco BRL) at 1 mg/ml, 24 hours after the cells had been transfected. Preparation of RNA and Northern blotting were carried out as described previously (Needham et al., 1995, Prot. Express. Purific., 6, 134). CHO-K1 clone 7 (CHO-CCR2B) was identified as the highest MCP-1 receptor B expressor. […]
ii) Preparation of Membrane Fragments […]
^125I MCP-1 was prepared using Bolton and Hunter conjugation (Bolton et al., 1973, Biochem. J., 133, 529; Amersham International plc]. Equilibrium binding assays were carried out using the method of Ernst et al., 1994, J. Immunol., 152, 3541. Briefly, varying amounts of ^125I-labeled MCP-1 were added to […] of purified CHO-CCR2B cell membranes in […] of Binding Buffer. After 1 hour incubation at room temperature the binding reaction mixtures were filtered and washed 5 times through a plate washer (Packard Harvester Filtermate™ 196). Scintillation fluid (25 μl, Microscint™-20, a high efficiency liquid scintillation counting cocktail for aqueous samples) was added to each well and the plate was covered with plate sealer and counted (Packard Top Count™). […] Non-specific binding was determined by the inclusion of a 200-fold molar excess of unlabelled MCP-1 in the reaction. […]

Series [1] deals with THP-1 cells. As to the kind of experiment: MCP-1 mediated calcium flux in THP-1 cells. It is filed as cell-based, human. The settings on record: stimulation of THP-1 cells with hMCP-1; dose response curves; read-out: approximate EC50 for rise in [Ca2+]i. The method, then:
b) MCP-1 Mediated Calcium Flux in THP-1 Cells
The human monocytic cell line THP-1 was grown in a synthetic cell culture medium RPMI 1640 supplemented with 10% foetal calf serum, 2 mM glutamine and Penicillin-Streptomycin (at 50 μg streptomycin/mil, Gibco BRL). THP-1 cells were washed in HBSS (lacking Ca^2+ and Mg^2+)+1 mg/ml BSA and resuspended in the same buffer at a density of 3×10^6 cells/ml. The cells were then loaded with […] FURA-2/AM for 30 min at 37° C., washed twice in HBSS, and resuspended at 1×10^6 cells/ml. […] The cuvette was placed in a fluorescence spectrophotometer (Perkin Elmer, Norwalk, Conn.) and preincubated for 4 min at 37° C. with stirring. Fluorescence was recorded over 70 sec and cells were stimulated by addition of hMCP-1 to the cuvette after 10 sec. [Ca^2+]i was measured by excitation at 340 nm and 380 nm alternately and subsequent measurement of the intensity of the fluorescence emission at 510 nm. […] Rmax is the maximal fluorescence ratio determined after addition of […] Ionomycin, Rmin is the minimal ratio determined by the subsequent addition of a Ca^2+ free solution containing 5 mM EGTA, and Sf2/Sb2 is the ratio of fluorescence values at 380 nm excitation determined at Rmin and Rmax, respectively. […]

For series [2], the system named is THP-1 cells. As to the kind of experiment: hMCP-1 mediated chemotaxis assay. The settings on record: hMCP-1 induced concentration dependent cell migration. It is filed as cell-based, human. The procedure:
c) hMCP-1 Mediated Chemotaxis Assay.
In vitro chemotaxis assays were performed using either the human monocytic cell line THP-1 or peripheral blood mixed monocytes obtained from fresh human blood purified by erythrocyte sedimentation followed by density gradient centrifugation over 9.6%(w/v) sodium metrizoate and 5.6%(w/v) polysaccharide, density 1.077 g/ml (Lymphoprep™ Nycomed). Cell migration through polycarbonate membranes was measured by enumerating those passing through either directly by Coulter counting or indirectly by use of a colourimetric viability assay measuring the cleavage of a tetrazolium salt by the mitochondrial respiratory chain (Scudiero D. A. et al. 1988, Cancer Res., 48, 48274833).
Chemoattractants were introduced into a 96-well microtiter plate which forms the lower well of a chemotaxis chamber fitted with a PVP-free 5 μm poresize polycarbonate adhesive framed filter membrane (NeuroProbe MB series, Cabin John, Md. 20818, USA) according to the manufacturer's instructions. The chemoattractant was diluted as appropriate in synthetic cell culture medium, RPMI 1640 (Gibco) supplemented with 2 mM glutamine and 0.5% BSA. […] The plate was incubated at 37° C. for 3 h and the absorbance of the soluble formazan product was read on a microtitre plate reader at 450 nm. […]

What is called melting point is the temperature of the solid-liquid transition. `CC(=O)Nc1ccc2c(c1)cc(C(=O)O)n2Cc1ccc(Cl)c(Cl)c1` [Example 4, N-(3,4-Dichlorobenzyl)-5-acetylaminoindole-2-carboxylic acid] registered a melting point of 245 to 246 °C.
The same measure, in the same setting: to `COc1ccc2cc(C(=O)O)n(Cc3ccc(Cl)c(Cl)c3)c2c1` belongs 165 to 166 °C.
Consider `O=C(O)c1cc2ccc(C(F)(F)F)cc2n1Cc1ccc(Cl)c(Cl)c1`, for which the melting point is 238 to 239 °C.
The same measure, in the same setting: with `CC(=O)c1c(C(=O)O)n(Cc2ccc(Cl)c(Cl)c2)c2ccccc12` the figure was 163 to 164 °C; with `O=C(O)c1cc2c([N+](=O)[O-])cccc2n1Cc1ccc(Cl)c(Cl)c1` [Example 3.65, N-(3,4-Dichlorobenzyl)-4-nitroindole-2-carboxylic acid], 296 to 297 °C.
For the molecule `O=C(O)c1cc2ccc([N+](=O)[O-])cc2n1Cc1ccc(Cl)c(Cl)c1` [Example 3.64, N-(3,4-Dichlorobenzyl)-6-nitroindole-2-carboxylic acid], the melting point fell in the range of 256 to 257 °C.
Broadly, the IC50 is the concentration needed to halve the response being measured. For `COc1ccc(Cn2c(C(=O)O)cc3cc(F)ccc32)cc1` [Example 3.23, 5-Fluoro-N-(4-methoxybenzyl)indole-2-carboxylic acid], the IC50 on MCP-1 receptor B (CCR2B) (competition with 100 pM labelled MCP-1, CHO-CCR2B cell membranes, read-out: IC50 in the hMCP-1 receptor binding assay) turned out to be 7380 nM.
Consider `O=C(O)c1cc2ccccc2n1Cc1ccc(Cl)c(Cl)c1`, for which the melting point stood at 198 °C.
In the case of `CC(=O)c1ccc2c(c1)cc(C(=O)O)n2Cc1ccc(Cl)c(Cl)c1` [Example 3.85, 5-Acetyl-N-(3,4-Dichlorobenzyl)indole-2-carboxylic acid], the melting point was 261 to 262 °C.
With `O=C(O)c1cc2ccc(Cl)cc2n1Cc1ccc(Cl)c(Cl)c1`, the melting point lay within 219 to 220 °C.
The term Kd denotes the concentration at which binding is half-saturated. Low values mean higher affinity, high ones lower affinity. Usually EC50 stands for the midpoint of the concentration-response curve. Consider “MCP-1: human Monocyte Chemoattractant Protein-1, a C—C chemokine; natural ligand used to validate the assays”, for which the IC50 with MCP-1 receptor B (CCR2B) (membrane fragments from CHO-CCR2B cells, cold competition with 125I-labeled MCP-1, read-out: IC50 of MCP-1 binding to CCR2B) stood at 0.11 nM. The molecule also came in with a dissociation constant (Kd) with MCP-1 receptor B (CCR2B) (membrane fragments from CHO-CCR2B cells, equilibrium binding) of 0.12 nM. The EC50 in the series on THP-1 cells [1] was roughly 2 nM. Further, in the series with THP-1 cells [2], the “concentration of maximal cell migration (biphasic response)” value is given as 0.5-1.0 nm.
Consider `CCOC(=O)c1cc2cc([N+](=O)[O-])ccc2n1Cc1ccc(Cl)c(Cl)c1` [Example 1.03, Ethyl N-(3,4-dichlorobenzyl)-5-nitroindole-2-carboxylate], for which the melting point was in the range of 133 to 140 °C.
`COc1cccc2c1cc(C(=O)O)n2Cc1ccc(Cl)c(Cl)c1` came in with a melting point of 220 to 221 °C.
Same read-out and setting: with `O=C(O)c1cc2cc(Br)ccc2n1Cc1ccc(Cl)c(Cl)c1` the figure was 232 to 233 °C; with `CCOC(=O)c1cc2cc(Br)ccc2n1Cc1ccc(Cl)c(Cl)c1` [Example 1.04, Ethyl 5-bromo-N-(3,4-dichlorobenzyl)indole-2-carboxylate], 95 to 96 °C.
As for `O=C(O)c1c([C@@H]2C[C@H]2C(=O)O)c2ccccc2n1Cc1ccc(Cl)c(Cl)c1` (relative stereo) [Example 3.58, N-(3,4-Dichlorobenzyl)-3-(trans-2-carboxy-cyclopropyl)indole-2-carboxylic acid], the melting point was in the range of 184 to 185 °C.
